Patent publication US20030138857A1, “Method of inhibiting atherosclerotic plaque destabilization” (priority 2002, published 2003)
Where “and” joins values, the source holds several entries; their conditions need not be identical. Identical values can stand only once. Where a SMILES comes first, the peptide text is derived from it. The star is where a group is joined. Cbz = O=C(OCc1ccccc1)*; CH2F = FC*

Test system: VSMCs
Test: Monocyte/VSMC co-culture apoptosis assay (Hoechst 33342/propidium iodide, apoptotic index)
Format: cell-based, human
Conditions: for inhibition of M-CSF-triggered, monocyte-induced apoptosis of VSMCs: eptifibatide 5 μg/ml, tirofiban 0.35 μg/ml, compared with abciximab; for VSMC apoptosis: M-CSF 100 ng/mL
Protocol: VSMCs (passage 3 to 7) were obtained from Clonetics and from heart donors. VSMC identity was confirmed by α-smooth muscle actin staining. VSMCs initially were grown in growth medium (SmGM2; Clonetics) with 5% serum, and at 60% to 70% confluence, the media was changed to a serum-free medium (50:50 of DMEM/F12 media with 5 mL of ITS, PSA, L-glutamine, and nonessential amino acids per 500 mL of solution). After 72-hour incubation in the serum-free medium, VSMCs were co-cultured with monocytes. Co-culture experiments were also conducted with the use of SmGM2 media (5% serum) throughout the experiment.
Leukocytes were isolated from buffy coat preparations (American Red Cross) by means of the Ficoll-Paque gradient method. Monocytes were isolated by means of an indirect magnetic labeling system and a monocyte isolation kit. The purity of monocytes obtained was […], which was confirmed by flow cytometry with anti-CD-14-FITC and anti-CD45-PE antibodies.
Freshly isolated monocytes were added 3:1 to VSMCs. Conditions included wells with VSMCs alone (with or without M-CSF) and VSMCs co-cultured with monocytes (with and without M-CSF). Experiments were conducted with either no serum or 5% serum in media. Experiments were also repeated by preincubating VSMCs with a pan-caspase inhibitor (1 hour at 37° C.) (ZVAD-fmk [10 μmol/L/mL]; sequence Z-Val-Ala-Asp [Ome]-CH2 F), before addition of the MMs and M-CSF. Media and ZVAD-fmk were replenished every 24 hours. Specific controls were used for VSMCs with ZVAD-fmk.
Abciximab, aggrastat, and eptifibatide, 3 established parenteral glycoprotein (GP) IIb/IIIa blockers, were added to MM and VSMC co-cultures before exposure to M-CSF. Controls were used for VSMCs with abciximab, aggrastat, and eptifibatide separately, with or without M-CSF. All experiments were done in triplicate.
Experiments were done with the use of recombinant human IL-1 β (100 to 1000 pg/mL) in place of M-CSF. Anti-human M-CSF neutralizing antibody (1 μg/mL) was added along with IL-1 β, and the VSMCs plus monocytes were co-cultured for 72 hours. Isotype control, IgG2a (clone 20102.1), was used for VSMCs cultured with monocytes and IL-1 β.
After 72-hour incubation, MM and VSMC co-cultures were stained live with the Vybrant Apoptosis kit (Molecular Probes), consisting of 2 nuclear stains, Hoechst 33342 (5 mg/mL) and propidium iodide (1 mg/mL). After incubation for 20 minutes at 37° C., coverslips were washed and the cell death index was estimated as previously described (Webster et al, J. Clin. Invest. 104:239-252 ([…])) (apoptotic index=dead cells/[live cells+dead cells]×100).

CCCCS(=O)(=O)N[C@@H](Cc1ccc(OCCCCC2CCNCC2)cc1)C(=O)O [tirofiban, reference compound] was tested, and the “inhibition of M-CSF-triggered, monocyte-induced apoptosis of VSMCs” value was “unable to confer similar protection” and the cell death index (tirofiban 0.35 μg/mL, VSMCs with monocytes and M-CSF) was 65.0±3.4%.

With COC(=O)C[C@H](NC(=O)[C@H](C)NC(=O)[C@@H](NC(=O)OCc1ccccc1)C(C)C)C(=O)CF [ZVAD-fmk, Z-Val-Ala-Asp [Ome]-CH2 F, reference compound] (Cbz-Val-Ala-Asp(OMe)-CH2F) the “apoptosis induced by co-culture with activated monocytes” value (VSMCs preincubated with ZVAD-fmk (10 μmol/L/mL)) was “completely abrogated” and the “apoptotic index of VSMCs” value (VSMCs preincubated with ZVAD-fmk (10 μmol/L/mL), co-cultured with monocytes and M-CSF, 72 h) was 15.4±0.4%.

N=C(N)NCCCC[C@@H]1NC(=O)CCSSC[C@@H](C(N)=O)NC(=O)[C@@H]2CCCN2C(=O)[C@H](Cc2c[nH]c3ccccc23)NC(=O)[C@H](CC(=O)O)NC(=O)CNC1=O [eptifibatide, reference compound] (HELM PEPTIDE1{[O=C(CCS[*:3])[*:2]].[N=C(N)NCCCC[C@H](N[*:1])C(=O)[*:2]].G.D.W.P.C.[am]}$PEPTIDE1,PEPTIDE1,1:R3-7:R3$$$V2.0) was tested, and the cell death index (eptifibatide 5 μg/mL, VSMCs with monocytes and M-CSF) was 51.3±2.2% and the “inhibition of M-CSF-triggered, monocyte-induced apoptosis of VSMCs” value was “unable to confer similar protection”.

With “IL-1: recombinant human IL-1 β, monocyte-activating cytokine (R&D Systems)” the “apoptotic index of VSMCs” value (VSMCs with monocytes and IL-1 100 pg/mL in place of M-CSF) was 10.5±2.4%, the “monocyte-induced VSMC death” value (VSMCs with monocytes and IL-1 500 pg/mL) was 59.5±3.5% and the “monocyte-induced VSMC death” value (VSMCs with monocytes and IL-1 1000 pg/mL (1 ng/mL)) was 59±3.8%.

B1: M-CSF: recombinant macrophage colony-stimulating factor (R&D Systems), hematopoietic growth factor (protein, UniProt P09603 33-554, looked up)
Macrophage colony-stimulating …: EEVSEYCSHMIGSGHLQSLQRLIDSQMETSCQITFEFVDQEQLKDPVCYLKKAFLLVQDIMEDTMRFRDNTPNAIAIVQLQELSLRLKSCFTKDYEEHDKACVRTFYETPLQLLEKVKNVFNETKNLLDKDWNIFSKNCNNSFAECSSQDVVTKPDCNCLYPKAIPSSDPASVSPHQPLAPSMAPVAGLTWEDSEGTEGSSLLPGEQPLHTVDPGSAKQRPPRSTCQSFEPPETPVVKDSTIGGSPQPRPSVGAFNPGMEDILDSAMGTNWVPEEASGEASEIPVPQGTELSPSRPGGGSMQTEPARPSNFLSASSPLPASAKGQQPADVTGTALPRVGPVRPTGQDWNHTPQKTDHPSALLRDPPEPGSPRISSLRPQGLSNPSTLSAQPQLSRSHSSGSVLPLGELEGRRSTRDRRSPAEPEGGPASEGAARPLPRFNSVPLTDTGHERQSEGSFSPQLQESVFHLLVPSVILVLLAVGGLLFYRWRRRSHQEPQRADSPLEQPEGSPLTQDDRQVELPV
For B1, the VSMC apoptosis (VSMCs in direct contact with activated monocytes) was 66.3±1.8%, the VSMC apoptosis (monocytes separated from VSMCs by porous insert (3-μm pores)) was 21.0±1.0% and the “apoptotic index of VSMCs” value (VSMCs cultured with M-CSF (100 ng/mL) but without monocytes) was 15.7±1.5%. The “apoptotic index of VSMCs” value (VSMCs cultured with both M-CSF (100 ng/mL) and monocytes, 4 sets of experiments) was 58.8±3.3% and the “apoptotic index of VSMCs” value (VSMCs with M-CSF-activated monocytes, no inhibitor (comparison group of later experiments; M-CSF concentration not given)) was 60±2.1% and 60.0±3.0% and 51.9±1.6% and 51.9±1.8%.

B2: abciximab: chimeric monovalent and humanized monoclonal antibody Fab fragment; GP IIb/IIIa blocker that binds Mac-1 (antibody, chains of the INN, looked up, V domains shown)
VH: EVQLQQSGTVLARPGASVKMSCEASGYTFTNYWMHWVKQRPGQGLEWIGAIYPGNSDTSYIQKFKGKAKLTAVTSTTSVYMELSSLTNEDSAVYYCTLYDGYYVFAYWGQGTLVTVSA
VL: EIVLTQSPVTLSVTPGDSVSLSCRASRDISNNLHWFQQTSHESPRLLIKYASQSMSGIPSRFSGSGSGTDFTLSINSVETEDFGMYFCQQTNSWPYTFGGGTKLEIK
modifications: Fab
With B2 the “apoptotic index of VSMCs” value (abciximab 7 μg/mL, VSMCs with monocytes and M-CSF) was 19.1±2.3% and 19.1±2.2% and the “apoptotic index of VSMCs” value (abciximab 7 μg/mL, VSMCs with monocytes and M-CSF, listed as Abciximab) was 19.1±2.2%.
